How the values were obtained:
hEP4 [1] = molecular target: T1, hEP4 (Homo sapiens, UniProt P35408); experiment: Functional data, human recombinant EP4 receptor stable transfectants; format: cell-based
T1 construct: expressed in transfected cells
Description: (§1) Human Recombinant EP1, EP2, EP3, EP4, FP, TP, IP and DP Receptors: Stable Transfectants
(§2) Plasmids encoding the human EP1, EP2, EP3, EP4, FP, TP, IP and DP receptors were prepared by cloning the respective coding sequences into the eukaryotic expression vector pCEP4 (Invitrogen). The pCEP4 vector contains an Epstein Barr virus (EBV) origin of replication, which permits episomal replication in primate cell lines expressing EBV nuclear antigen (EBNA-1). It also contains a hygromycin resistance gene that is used for eukaryotic selection. […] HEK-293 cells were grown in DMEM with 10% fetal bovine serum (FBS), 250 μg ml^−1 G418 (Life Technologies) and 200 μg ml^−1 gentamicin or penicillin/streptomycin.
(§3) For transfection, the cells were grown to 50-60% confluency on 10 cm plates. The plasmid pCEP4 incorporating cDNA inserts for the respective human prostanoid receptor (20 μg) was added to 500 μl of 250 mM CaCl2. […] After 30 min, 9 ml DMEM were added to the mixture. The DNA/DMEM/calcium phosphate mixture was then added to the cells, which had been previously rinsed with 10 ml PBS. The cells were then incubated for 5 hr at 37° C. in humidified 95% air/5% CO2. The calcium phosphate solution was then removed and the cells were treated with 10% glycerol in DMEM for 2 min. The glycerol solution was then replaced by DMEM with 10% FBS. The cells were incubated overnight and the medium was replaced by DMEM/10% FBS containing 250 μg ml^−1 G418 and penicillin/streptomycin. The following day hygromycin B was added to a final concentration of 200 μg ml^−1.
(§4) Ten days after transfection, hygromycin B resistant clones were individually selected and transferred to a separate well on a 24 well plate. At confluence each clone was transferred to one well of a 6 well plate, and then expanded in a 10 cm dish. Cells were maintained under continuous hygromycin selection until use.

hEP4 [2] = molecular target: T1, hEP4; experiment: Radioligand binding, hEP4; conditions: [3H]PGE2 competition
Description: as §1, §2, §3, §4
Radioligand binding studies on plasma membrane fractions prepared for cells stably transfected with the cat or human receptor were performed as follows. Cells washed with TME buffer were scraped from the bottom of the flasks and homogenized for 30 sec using a Brinkman PT 10/35 polytron. TME buffer was added as necessary to achieve a 40 ml volume in the centrifuge tubes. TME is comprised of 50 mM TRIS base, 10 mM MgCl2, 1 mM EDTA; pH 7.4 is achieved by adding 1 N HCl. The cell homogenate was centrifuged at 19,000 rpm for 20-25 min at 4° C. using a Beckman Ti-60 or Ti-70 rotor. The pellet was then resuspended in TME buffer to provide a final protein concentration of 1 mg/ml, as determined by Bio-Rad assay. Radioligand binding assays were performed in a 100 μl or 200 μl volume.
The binding of [^3H](N) PGE2 (specific activity 165 Ci/mmol) was determined in duplicate and in at least 3 separate experiments. Incubations were for 60 min at 25° C. and were terminated by the addition of 4 ml of ice-cold 50 mM TRIS-HCl followed by rapid filtration through Whatman GF/B filters and three additional 4 ml washes in a cell harvester (Brandel). Competition studies were performed using a final concentration of 2.5 or 5 nM [^3H](N) PGE2 and non-specific binding was determined with 10^−5 M unlabelled PGE2.

hEP3A = molecular target: T2, hEP3A (Homo sapiens, UniProt P43115); experiment: Functional data, human recombinant EP3A receptor stable transfectants; format: cell-based
T2 construct: expressed in transfected cells
T2 sequence (P43115 1-390): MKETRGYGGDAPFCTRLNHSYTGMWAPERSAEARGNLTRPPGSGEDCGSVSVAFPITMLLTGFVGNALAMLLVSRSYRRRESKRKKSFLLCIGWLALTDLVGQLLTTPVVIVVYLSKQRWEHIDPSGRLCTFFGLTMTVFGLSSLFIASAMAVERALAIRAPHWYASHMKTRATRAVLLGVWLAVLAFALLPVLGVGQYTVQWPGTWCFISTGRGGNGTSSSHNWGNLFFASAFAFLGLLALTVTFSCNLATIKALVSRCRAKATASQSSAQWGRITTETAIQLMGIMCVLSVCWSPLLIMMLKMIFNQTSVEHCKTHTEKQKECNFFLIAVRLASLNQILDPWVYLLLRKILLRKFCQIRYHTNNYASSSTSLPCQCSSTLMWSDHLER
Description: as §1, §2, §3, §4

T1 sequence (P35408 whole entry): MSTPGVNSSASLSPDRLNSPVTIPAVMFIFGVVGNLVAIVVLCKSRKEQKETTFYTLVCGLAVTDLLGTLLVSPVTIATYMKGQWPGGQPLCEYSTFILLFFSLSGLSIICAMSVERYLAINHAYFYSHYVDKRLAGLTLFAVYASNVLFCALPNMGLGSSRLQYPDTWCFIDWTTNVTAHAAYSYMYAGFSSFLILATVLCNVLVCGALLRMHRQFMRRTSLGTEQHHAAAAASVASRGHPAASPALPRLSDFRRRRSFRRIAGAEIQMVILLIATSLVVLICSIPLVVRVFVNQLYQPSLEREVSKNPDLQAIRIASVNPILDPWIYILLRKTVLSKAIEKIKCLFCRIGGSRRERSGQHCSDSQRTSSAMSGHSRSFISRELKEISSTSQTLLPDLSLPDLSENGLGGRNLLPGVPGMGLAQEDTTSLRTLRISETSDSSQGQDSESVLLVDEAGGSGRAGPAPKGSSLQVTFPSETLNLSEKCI

SMILES | EC50 (hEP4 [1]) | IC50 (hEP4 [2]) | EC50 (hEP3A) | hEP3A functional EC50 (hEP3A)
CCOC(=O)CCCCCCN1C(=O)CC[C@@H]1CCC(O)Cc1ccccc1 (stereo partly drawn) [Example 10, 7-[2S-[3R-Hydroxy-(4-phenyl)-butyl]-5-oxo-pyrrolidin-1-yl]-heptanoic acid, ethyl ester] | 1020 nM | – | – | –
CCOC(=O)CCCCCCN1C(=O)CC[C@@H]1/C=C/C(O)Cc1ccccc1 (stereo partly drawn) [Example 10a, 7-[2S-[3R-Hydroxy-(4-phenyl)-but-1-enyl]-5-oxo-pyrrolidin-1-yl]-heptanoic acid, ethyl ester] | 368 nM | 600 nM | – | –
CCOC(=O)CCCCCCN1C(=O)CC[C@@H]1CCC(O)Cc1cccc(Cl)c1 (stereo partly drawn) [Example 2, 7-[2S-[3R-Hydroxy-4-(chlorophenyl)-butyl]-5-oxo-pyrrolidin-1-yl]-heptanoic acid, ethyl ester] | 65 nM | 1000 nM | – | –
CCOC(=O)CCCCCCN1C(=O)CC[C@@H]1/C=C/C(=O)Cc1cccc(C(F)(F)F)c1 [Example 8a, 7-[2S-[3-Oxo-4-(trifluoromethylphenyl)-but-1-enyl]-5-oxo-pyrrolidin-1-yl]-heptanoic acid, ethyl ester] | > 10000 nM | > 10000 nM | > 10000 nM | –
O=C(O)CCCCCCN1C(=O)CC[C@@H]1CCC(O)Cc1cccc(C(F)(F)F)c1 (stereo partly drawn) [Example 5, 7-[2S-[3R-Hydroxy-4-(3-trifluoromethyl-phenyl)-butyl]-5-oxo-pyrrolidin-1-yl]-heptanoic acid] | 0.4 nM | 17 nM | – | hit
CCOC(=O)CCCCCCN1C(=O)CC[C@@H]1CCC(=O)Cc1ccccc1 [Example 12, 7-[2S-[3-Oxo-4-(phenyl)-butyl]-5-oxo-pyrrolidin-1-yl]-heptanoic acid, ethyl ester] | > 10000 nM | 8900 nM | – | –
CCOC(=O)CCCCCCN1C(=O)CC[C@@H]1CCC(=O)Cc1cccc(C(F)(F)F)c1 [Example 8, 7-[2S-[3-Oxo-4-(trifluoromethylphenyl)-butyl]-5-oxo-pyrrolidin-1-yl]-heptanoic acid, ethyl ester] | 7160 nM | > 10000 nM | – | –
O=C(O)CCCCCCN1C(=O)CC[C@@H]1/C=C/C(O)Cc1cccc(C(F)(F)F)c1 (stereo partly drawn) [Example 5a, 7-[2S-[3R-Hydroxy-4-(3-trifluoromethyl-phenyl)-but-1-enyl]-5-oxo-pyrrolidin-1-yl]-heptanoic acid] | 0.4 nM | 5 nM | – | hit
CCOC(=O)CCCCCCN1C(=O)CC[C@@H]1/C=C/C(=O)Cc1ccccc1 [Example 12a, 7-[2S-[3-Oxo-4-(phenyl)-but-1-enyl]-5-oxo-pyrrolidin-1-yl]-heptanoic acid, ethyl ester] | > 10000 nM | > 10000 nM | – | –

Other lines, results leading:

EC50 (hEP4 [1]) | IC50 (hEP4 [2]) | EC50 (hEP3A) | hEP3A functional EC50 (hEP3A) | SMILES
> 10000 nM | > 10000 nM | – | – | CCOC(=O)CCCCCCN1C(=O)CC[C@@H]1/C=C/C(=O)Cc1cccc(Cl)c1 [Example 4a, 7-[2S-[4-(3-Chloro-phenyl)-3-oxo-but-1-enyl]-5-oxo-pyrrolidin-1-yl]-heptanoic acid, ethyl ester]
111 nM | 1200 nM | – | – | CCOC(=O)CCCCCCN1C(=O)CC[C@@H]1CCC(O)Cc1cccc(C(F)(F)F)c1 (stereo partly drawn) [Example 6, 7-[2S-[3R-Hydroxy-4-(3-trifluoromethyl-phenyl)-butyl]-5-oxo-pyrrolidin-1-yl]-heptanoic acid, ethyl ester]
21 nM | 300 nM | – | – | CCOC(=O)CCCCCCN1C(=O)CC[C@@H]1/C=C/C(O)Cc1cccc(Cl)c1 (stereo partly drawn) [Example 2a, 7-[2S-[3R-Hydroxy-4-(chlorophenyl)-but-1-enyl]-5-oxo-pyrrolidin-1-yl]-heptanoic acid, ethyl ester]
2.4 nM | 18 nM | > 10000 nM | – | O=C(O)CCCCCCN1C(=O)CC[C@@H]1CCC(O)Cc1ccccc1 (stereo partly drawn) [Example 9, 7-[2S-[3R-Hydroxy-(4-phenyl)-butyl]-5-oxo-pyrrolidin-1-yl]-heptanoic acid]

Source: patent publication US6906097B2, “8-azaprostaglandin analogs as agents for lowering intraocular pressure” (Allergan, Inc., priority 2002, dated 2005)
